Measurements taken from PMC6718548, “Tau pathology reduction with SM07883, a novel, potent, and selective oral DYRK1A inhibitor: A potential therapeutic for Alzheimer's disease” (Aging Cell, 2019).
Like-named read-outs stand apart in the source and are kept apart here.

How the values were obtained:
[1] = tested on: phosphorylated tau at Thr212 in HEK293T cells; assay: pTau Thr212 sandwich ELISA in double-transfected HEK293T cells; format: cell-based, human; settings: HEK293T co-transfected with DYRK1A and MAPT, overnight treatment, single lot, read-out: Cell assay EC50 pTau at Thr212
Source text: For the generation of the DYRK1A- and MAPT-overexpressing cells, HEK293T cells were transiently transfected with DYRK1A and MAPT genes. Specifically, expression vectors pCMV6-XL4 and pCMV6-Entry expressing DYRK1A and MAPT, alongside an empty vector control (pCI, OriGene, Catalog #SC314641 and RC216166, respectively; Promega, Catalog #E1731) and the material was amplified and purified using a custom MaxiPrep service (GENEWIZ, South Plainfield, NJ).
(§1) For ELISA assays, native SH-SY5Y cells, or transiently double-transfected HEK293T cells were dissociated by treatment with trypsin-EDTA and seeded in 96-well flat-bottom cell culturing plate before administration of 3-fold serial dilution of SM07883 overnight.
(§2) Following compound treatment, cells were washed and lysed with 1x RIPA buffer containing phosphatase and protease inhibitors transferred to 96-well V-bottom collection plates for centrifugation and removal of insoluble material.
The pTau Thr212 ELISA 96-well flat-bottom plates, were coated with anti-HT7 capture antibody (Catalog MN1000, Thermo Fisher, Waltham, […]) diluted 1:300 in 1X PBS at 4°C. After overnight incubation, coated plates were washed with 1× PBS containing 0.05% Tween-20 and blocked for 1hr 2% BSA (A7030-50G, Sigma-Aldrich, St. Louis, MO), then washed prior to sample loading.
For the pTau Thr212 sandwich ELISA, cell lysates were directly transferred to the anti-HT7 capture, antibody-coated, and BSA-blocked ELISA plates for 2hrs. Supernatant was then removed, and plates were washed with 1× PBS-0.05% Tween-20, followed by addition of 100 µL per well anti-phosphorylated tau Thr212 antibody (Catalog 44-740G, Thermo Fisher) diluted 1:200 in 1× PBS for 2hrs. Plates were washed and probed with an anti-rabbit/HRP conjugate (Cell Signaling Technology, 7074S) for 1hr then washed before a TMB substrate solution (Catalog N301, Thermo Fisher) was added. When a deep blue color was observed, 100 µL per well of stop solution (Catalog N600, Thermo Fisher) was added.
(§3) Colorimetric detection of pT212Tau or pS396Tau signal was read at 450 nm using the Cytation 3 Cell Imaging Multi-Mode Reader (BioTek, Winooski, VT). The signal was used to plot, draw the curve fitting, and determine the EC50 value for SM07883 in Prism 7 (GraphPad, La Jolla, CA).

[2] = tested on: phosphorylated tau at Ser396 in SH-SY5Y cells; assay: pSer396Tau ELISA in SH-SY5Y neuroblastoma cells; format: cell-based, human; settings: overnight (16 hr) treatment, single lot, read-out: Cell assay EC50 pTau at Ser396
Source text: as §1, §2, §3

[3] = target: T1, DYRK1a (Homo sapiens, UniProt Q13627); assay: DYRK1A kinase assay (Z-Lyte / SelectScreen IC50); format: biochemical; settings: Suppl. Table 2 comparison with commercially available inhibitors
T1 construct: purchased Thermo Fisher Scientific

[4] = target: T2, GSK‐3β (Homo sapiens, UniProt P49841); assay: Kinase IC50 (SelectScreen); format: biochemical; settings: Suppl. Table 2 comparison with commercially available inhibitors; read-out: Kinase IC50 GSK-3b
T2 construct: purchased Thermo Fisher SelectScreen service
T2 sequence (P49841 whole entry): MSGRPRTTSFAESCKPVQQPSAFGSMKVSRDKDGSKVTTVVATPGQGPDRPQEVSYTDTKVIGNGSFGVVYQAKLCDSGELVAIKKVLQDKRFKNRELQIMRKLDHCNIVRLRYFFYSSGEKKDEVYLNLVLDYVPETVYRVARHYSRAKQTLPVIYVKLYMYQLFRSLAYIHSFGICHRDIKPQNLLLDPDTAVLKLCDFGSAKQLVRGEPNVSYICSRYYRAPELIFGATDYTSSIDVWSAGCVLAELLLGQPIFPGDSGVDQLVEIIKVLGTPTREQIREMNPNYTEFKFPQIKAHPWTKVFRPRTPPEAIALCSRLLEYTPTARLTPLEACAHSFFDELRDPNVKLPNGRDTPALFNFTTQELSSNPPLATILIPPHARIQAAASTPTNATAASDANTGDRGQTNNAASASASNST

Cc1c[nH]c(-c2cnc(NCCNc3ccc(C#N)cn3)nc2-c2ccc(Cl)cc2Cl)n1 [CHIR-99021]
EC50 ([1]; Homo sapiens, HEK-293T): > 10000 nM | EC50 ([2]; Homo sapiens): 252 nM

O=C(O)c1ccc2c(c1)nc(Nc1cccc(Cl)c1)c1ccncc12 [CX-4945]
EC50 ([1]; Homo sapiens, HEK-293T): 428 nM | EC50 ([2]; Homo sapiens): 5200 nM

Cc1ccc(C(=O)Nc2c[nH]nc2C(=O)NCCCOC(C)C)cn1 [Compound A, 6-Methyl-N-[3-[[3-(1-methylethoxy)propyl]carbamoyl]-1H-pyrazol-4-yl]pyridine-3-carboxamide]
EC50 ([1]; Homo sapiens, HEK-293T): > 10000 nM | IC50 [3]: 761 nM | EC50 ([2]; Homo sapiens): 6 nM

O=C(O[C@@H]1Cc2c(O)cc(O)cc2O[C@@H]1c1cc(O)c(O)c(O)c1)c1cc(O)c(O)c(O)c1 [EGCG, Epigallocatechin gallate]
EC50 [1]: > 10000 nM | IC50 [3]: 1400 nM | IC50 [4]: > 10000 nM | EC50 [2]: > 10000 nM

COC(=N)c1nc2ccc3ncnc(Nc4ccc(Cl)cc4Cl)c3c2s1 [EHT-5372]
EC50 [1]: 3800 nM | IC50 [3]: 83 nM | IC50 [4]: > 10000 nM | EC50 [2]: 2500 nM

COc1ccc2c(c1)[nH]c1c(C)nccc12 [Harmine]
EC50 ([1]; Homo sapiens, HEK-293T): 233 nM | EC50 ([2]; Homo sapiens): > 10000 nM

CCN1/C(=C/C(C)=O)Sc2ccc(O)cc21 [INDY]
EC50 [1]: > 10000 nM | IC50 [4]: > 10000 nM | EC50 [2]: > 10000 nM

O=C1NC(Nc2ccccc2)=N/C1=C\c1ccc2c(c1)OCO2 [Leucettine L41]
EC50 [1]: 72 nM | IC50 [4]: 1100 nM | EC50 [2]: 1400 nM

CCN1/C(=C/C(C)=O)Sc2ccc(OC)cc21 [TG003]
EC50 [1]: > 10000 nM | IC50 [4]: > 10000 nM | EC50 [2]: > 10000 nM

O=c1sn(-c2cccc3ccccc23)c(=O)n1Cc1ccccc1 [Tideglusib]
EC50 ([1]; Homo sapiens, HEK-293T): > 10000 nM | EC50 ([2]; Homo sapiens): > 10000 nM
